Results on seven compounds are retold here after US20150315188A1, “COMPOUNDS AND METHODS FOR TREATMENT OF HYPERTENSION” (MEDIVATION TECHNOLOGIES, INC., priority 2012, published 2015).

Data set [1] deals with T1, rat adrenergic α1B receptor (Rattus norvegicus, UniProt P15823).
T1 construct: rat adrenergic α1B receptor obtained from Wistar Rat liver; from tissue; host or cells: Wistar rat liver
T1 sequence (P15823 1-515): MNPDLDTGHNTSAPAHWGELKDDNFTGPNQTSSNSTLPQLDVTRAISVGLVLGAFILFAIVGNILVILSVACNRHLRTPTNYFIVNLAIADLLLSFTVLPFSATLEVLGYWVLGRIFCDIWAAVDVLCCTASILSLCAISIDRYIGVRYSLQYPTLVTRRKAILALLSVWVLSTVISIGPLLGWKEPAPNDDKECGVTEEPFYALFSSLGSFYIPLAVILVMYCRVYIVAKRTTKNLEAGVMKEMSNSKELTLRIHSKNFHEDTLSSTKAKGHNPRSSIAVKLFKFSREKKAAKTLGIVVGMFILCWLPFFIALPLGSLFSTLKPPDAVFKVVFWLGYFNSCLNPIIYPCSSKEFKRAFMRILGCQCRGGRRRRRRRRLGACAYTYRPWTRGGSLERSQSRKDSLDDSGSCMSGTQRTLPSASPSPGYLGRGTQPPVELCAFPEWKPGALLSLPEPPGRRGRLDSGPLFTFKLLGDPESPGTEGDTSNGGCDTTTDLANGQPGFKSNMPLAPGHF
Nature of the data set: Radioligand binding, adrenergic α1B (Protocol Group A). Conditions: 0.1 μM compound, [3H]Prazosin, read-out: percent inhibition of specific binding, Adrenergic α1B. The protocol:
To evaluate in radioligand binding assays the activity of compounds of the invention, rat adrenergic α1B receptor obtained from Wistar Rat liver (Garcia-S'ainz, J. et al, Biochem. Biophys. Res. Commun. 186:760, 1992; Michel, A. et al, Br. J. Pharmacol. 98:883, 1989) in a modified Tris-HCl buffer (50 mM Tris-HCl buffer, pH 7.4, 0.5 mM EDTA) was used. Compounds of the invention were incubated with 0.25 nM [^3H]Prazosin for 60 min at 25° C. Non-specific binding was estimated in the presence of 10 μM phentolamine. Receptor proteins were filtered and washed, the filters were then counted to determine [^3H]Prazosin specifically bound. Compounds were screened at 1 μM or lower, using 1% DMSO as vehicle. Compounds of the invention were tested in this biochemical assay and percent inhibition of specific binding was determined. Biochemical assay results are presented as the percent inhibition of specific binding in Table B1a.

The nature of data set [2]: Stability in the presence of dog hepatocytes. Type of data set: in vitro ADME, Beagle dog. Conditions: male, Beagle, dog, cryopreserved hepatocytes, pH 7.4, dog hepatocytes, 37° C., average of duplicates, ^a = 0-120 minute time points, read-out: T1/2 Dog. The protocol:
(§1) Compounds of the invention were tested for stability in the presence of dog, rat and human hepatocytes over a 4 hour period by LC/MS/MS. The study was performed by Integrated Analytical Solutions, Berkeley, Calif.
(§2) Reference Standards and Solutions: Compounds of the invention were stored as powders at ambient temperature in a desiccator and protected from light. Reference stock solutions of Compound Nos. 50a, 50b, 79a, 82, 91a and 178d, as 20 mM in DMSO were prepared and subsequently diluted to 2 mM in MeOH to provide working stock solutions (WSS). Unused standard solutions were stored at −20° C.
(§3) Hepatocyte Preparation: Human (mixed gender), Beagle dog (male) and Sprague Dawley rat (male) cryopreserved hepatocytes were purchased from Life Technologies Corporation. Hepatocytes were removed from liquid nitrogen, quickly thawed in a 37° C. water bath and transferred to Hepatocyte Thawing/Plating Medium (Cryopreserved Hepatocyte Recovery Medium, CHRM, Life Technologies Inc.). The cells were pelleted by slow speed centrifugation (˜100×g, 6 min) and resuspended at a high cell density. Hepatocyte viability was determined by trypan blue exclusion. Hepatocyte incubation medium (Life Technologies, Inc.) was added to generate a cell density of 2.0×10^6 cells/mL.
(§4) Hepatocyte Incubations for Stability: The 2 mM WSS was diluted 1 in 200 in hepatocyte incubation medium (pH 7.4) to 10 μM. A solution containing control compounds was prepared similarly to contain 10 μM each of dextromethorphan and testosterone. The solutions of test compounds and controls at 10 μM in hepatocyte incubation medium were pre-incubated at 37° C. for 10 min. Aliquots (250 μL) of hepatocyte suspensions (at 2.0×10^6 cells/mL) were transferred to appropriate 48-well plates and pre-incubated at 37° C. for 10 minutes. Metabolism was initiated by adding 250 μL pre-incubated medium (containing test drug) to wells containing cells. A negative control reaction excluding hepatocytes was used to monitor aqueous stability and/or non-specific adsorption. The final reaction mixtures contained 5 μM of test or control compound and 1.0×10^6 cells/mL. All reactions were performed in duplicate and carried at 37° C. in an incubator. Dextromethorphan and testosterone were used as control drugs to verify hepatocyte activity.
(§5) Aliquots were removed from each metabolism reaction at 0, 0.5, 2 and 4 hours. The reactions were terminated by adding each aliquot to a vessel containing 2× volumes (80 μL) of Internal Standard Solution (acetonitrile containing 50 ng/mL 2-(2,8-dimethyl-3,4-dihydro-1H-pyrido[4,3-b]indol-5(2H)-yl)-1-(pyridin-4-yl)ethanol (ISS1), 50 ng/mL of 2-(2,8-dimethyl-3,4-dihydro-1H-pyrido[4,3-b]indol-5(2H)-yl)-1-(piperidin-1-yl)ethanone (ISS2) and 5 ng/mL diphenhydramine. Terminated reactions were centrifuged at 6000 g for 30 mins at 4° C. to remove the precipitated proteins and cell debris. Following centrifugation, 20 μL of each supernatant was transferred to a deep-well microplate and diluted with 5× volumes (100 μL) of 0.2% formic acid in water. Compound 178d samples were diluted with 5× volumes (100 μL) of 0.1% HFBA in water. Samples were analyzed by LC/MS/MS.
(§6) Calculation of Metabolism Parameters: Percent remaining was measured by dividing the analyte/IS peak area ratio at the designated sample time by the peak area ratio at time 0. ISS1 served as the IS for Compound No. 178d. ISS2 served as the IS for Compound nos. 50a, 50b, 79a, 82 and 91a. The metabolic half-life (T1/2) was calculated using all time points unless otherwise noted. The T1/2 values were calculated as 0.693/k, where k is the slope of the log analyte/internal standard peak area ratio versus time. Metabolism rate was calculated by dividing the starting concentration of substrate by the concentration of hepatocytes, then dividing by the T1/2 value.

Data set [3] can be described thus: Stability in the presence of rat hepatocytes. Type of data set: in vitro ADME, Sprague Dawley rat. As to conditions: male, Sprague Dawley, rat, cryopreserved hepatocytes, pH 7.4, rat hepatocytes, 37° C., average of duplicates, ^a = 0-120 minute time points, read-out: T1/2 Rat. The protocol:
as §1, §2, §3, §4, §5, §6

Some results are limits rather than exact numbers.

Take `Cc1ccc2c(c1)c1c(n2CC(OC(=O)N2CCCC2)c2ccncc2)CCN(C)C1` (single isomer, unassigned) [4b]: in data set [1], the inhibition at 0.1 µM worked out at 35%.
For the compound `Cc1ccc2c(c1)c1c(n2CC(C)(O)c2ccc(F)nc2)CCN2CCCC12` (single isomer, unassigned) [6a], in data set [1], the inhibition at 0.1 µM was found to be 91%.
For `Cc1cc2c3c(n(CC(C)(O)c4ccncc4)c2cc1Cl)CCN1CCCC31` (single isomer, unassigned) [50a], the values for the half-life at 5 µM in data set [2] and in data set [3] were 122 min and 146 min, respectively.
For `Cc1cc(Cl)c2c(c1)c1c(n2CC(C)(O)c2ccncc2)CCN2CCCC12` (single isomer, unassigned) [91a] the same measures were 82 min and 169 min.
The matching figures for `Cc1ccc2c(c1)c1c(n2CC(O)c2ccncc2)CCN2CCCC12` (single isomer, unassigned) [Compound No. 178d]: 240 min and more than 240 min.
The matching figures for `Cc1cc(F)c2c(c1)c1c(n2CC(C)(O)c2cccnc2)CCN2CCCC12` (stereo not drawn) [Compound No. 79a]: 181 min and 210 min.
As for `Cc1ccc2c(c1)c1c(n2C[C@@H](OC2CCCC2)c2ccncc2)CCN2CCC[C@H]12` [compound 82, (11cR)-7-[(25)-2-(cyclopentoxy)-2-(4-pyridyl)ethyl]-10-methyl-1,2,3,5,6,11c-hexahydroindolizino[7,8-b]indole], the half-life at 5 µM in data set [2] came out at 48 min; in data set [3], 46 min.
